Measured values taken from patent publication US12403132B2, “Methods of treating bone marrow failure syndromes and compositions for use in the same” (The Board of Trustees of the Leland Stanford Junior …, priority 2020, dated 2025).

Assays:
S6K = S6K phosphorylation in differentiating RPS19-insufficient CD34+ progenitors; assay type: cell-based, human; details: 5 μM, differentiating RPS19-insufficient cells
Description: FIG. 5. NLK-mediated phosphorylation of raptor leads to reduced mTOR activity and increased autophagy. (a) Fetal liver CD34+ progenitors were transduced with controls or shRPS19 and differentiated for 5 days in the presence or absence of 5 μM BI-D1870 (RSK inhibitor). Samples were lysed and normalized for protein abundance before being subjected to immunoprecipitation of NLK, raptor, S6K and 4E-BP1. Immunoprecipitated NLK was utilized to examine NLK activity (a—top panel—Orange, blue and green depict NLK, Myb and raptor phosphorylation respectively), while raptor, S6K and 4E-BP1 were subjected to western blotting for phosphorylated serine/threonine residues (bottom panels). In parallel, lysates were probed for total raptor, S6K, 4E-BP1, NLK and GAPDH (bottom panels) by Western blotting. […] (d) Cells treated as above were plated in 96 wells and absorbance measured at a wavelength of 520 nm. […] After imagining, 100 cells per group were analyzed and the number of intense fluorescent puncta per cell was scored (lower panels).
Raptor is the regulatory component of the mTOR Complex 1 and a substrate of NLK in osmotic and oxidative stress. […] We determined immuno-purified NLK from human and murine RPS19- and RPL11-insufficient progenitors, as well as derived from DBA patients can phosphorylate raptor in vitro (FIGS. 1-4). […]

red cell production = assay: Red cell production in in vitro DBA models; assay type: cell-based
Source text: (§1) IV. Nemo-like kinase (NLK) is hyperactivated in red cell precursors in the bone marrow of patients with DBA. Inhibition of NLK by knockdown or chemical compounds in our in vitro DBA models results in improvement of red cell production. Regardless of the underlying genetic mutation causing DBA, NLK is hyperactivated. […] Our goal is to next test OTS167 in mouse models of DBA. According to clinical trials.gov, OTS167 is currently in trials for AML, ALL, MDS, MPN, and CML, solid tumors, and breast cancer, but not DBA. This is the first example of a targeted therapy for all DBA patient regardless of the underlying mutations. Giving this drug would be easier and cheaper than gene editing to correct the gene defect.

normal bone marrow cells = assay: Toxicity to normal bone marrow cells; assay type: cell-based; details: in vitro
Source text: as §1

NLK = target: T1, NLK (Homo sapiens, UniProt Q9UBE8); assay: NLK inhibition by OTS167 in DBA models
T1 sequence (Q9UBE8 1-527): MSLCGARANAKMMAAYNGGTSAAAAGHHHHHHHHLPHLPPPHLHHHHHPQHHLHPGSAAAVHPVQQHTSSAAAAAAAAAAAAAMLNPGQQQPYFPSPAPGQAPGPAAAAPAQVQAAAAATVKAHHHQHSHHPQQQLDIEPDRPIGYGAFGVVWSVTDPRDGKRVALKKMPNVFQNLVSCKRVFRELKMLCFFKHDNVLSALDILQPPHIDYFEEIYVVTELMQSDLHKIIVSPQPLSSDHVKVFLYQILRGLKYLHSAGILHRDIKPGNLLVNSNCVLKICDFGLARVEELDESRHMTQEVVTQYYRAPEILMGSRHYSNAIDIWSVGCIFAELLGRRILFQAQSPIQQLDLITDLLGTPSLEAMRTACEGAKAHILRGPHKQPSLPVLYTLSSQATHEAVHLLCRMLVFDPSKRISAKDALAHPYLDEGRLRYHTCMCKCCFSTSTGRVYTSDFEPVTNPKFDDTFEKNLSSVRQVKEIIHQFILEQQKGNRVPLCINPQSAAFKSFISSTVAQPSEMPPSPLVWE
Source text: as §1

SMILES	S6K phosphorylation (S6K)	red cell production in vitro (red cell production)	toxicity to normal bone marrow cells (normal bone marrow cells)	inhibition of NLK (NLK)
CC(C)CCN1c2nc(Nc3cc(F)c(O)c(F)c3)ncc2N(C)C(=O)C1C (stereo not shown) [BI-D1870]	reduced to below basal levels			
CC(=O)c1cnc2ccc(-c3cc(Cl)c(O)c(Cl)c3)nc2c1N[C@H]1CC[C@H](CN(C)C)CC1 [OTS167]		improves red cell production	without toxicity	inhibit NLK
